Values after ≈ are worked out from the molar mass of the structure shown. Read-outs that look alike come from different tables or passages of the source.
How the values were obtained:
M. tuberculosis InhA = molecular target: T1, M. tuberculosis InhA (Mycobacterium tuberculosis, UniProt P9WGR1); assay: InhA enzymatic inhibition assay (NADH oxidation at 340 nm); assay type: biochemical
T1 construct: made in house; host or cells: E. coli

[1] = tested on: Mycobacterium tuberculosis; conditions: cited from earlier work
[2] = molecular target: enoyl-acyl carrier protein reductase InhA enzyme; set-up: method as in PMID 32987135; conditions: cited from earlier work
[3] = 70 nM InhA, 2 h pre-incubation, 25 °C, pH 6.8, read-out: InhA inhibition IC50

T1 sequence (P9WGR1 whole entry, looked up): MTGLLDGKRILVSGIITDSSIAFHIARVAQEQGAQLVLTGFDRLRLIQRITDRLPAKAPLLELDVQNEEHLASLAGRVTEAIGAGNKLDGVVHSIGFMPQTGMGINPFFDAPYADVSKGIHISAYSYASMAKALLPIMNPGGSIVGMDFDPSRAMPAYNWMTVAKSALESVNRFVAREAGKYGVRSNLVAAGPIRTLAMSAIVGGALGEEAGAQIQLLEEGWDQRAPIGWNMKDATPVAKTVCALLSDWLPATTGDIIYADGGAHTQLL

Compound | melting point [°C] | IC50 (M. tuberculosis InhA) [nM] | inhibition at 10 µM (M. tuberculosis InhA) [%] | IC50 (M. tuberculosis InhA; [3]) [nM] | MIC [1] [µg/mL] | IC50 [2] [nM]
CC(=O)c1ccc(OCc2cn(CC(=O)Nc3ccccc3F)nn2)cc1 [Compound 9, 2-(4-((4-Acetylphenoxy)methyl)-1H-1,2,3-triazol-1-Yl)-N-(2-fluorophenyl)acetamide] | 179 to 180 | 5 | 100 | – | – | –
CC(=O)c1ccc(OCc2cn(CC(=O)Nc3ccc([N+](=O)[O-])cc3)nn2)cc1 [Compound 10, 2-(4-((4-Acetylphenoxy)methyl)-1H-1,2,3-triazol-1-Yl)-N-(4-nitrophenyl)acetamide] | 185 to 186 | 8 | 100 | – | – | –
CC(=O)c1ccc(OCc2cn(CC(=O)Nc3ccc(Cl)c(Cl)c3)nn2)cc1 [Compound 11, 2-(4-((4-Acetylphenoxy)methyl)-1H-1,2,3-triazol-1-Yl)-N-(3,4-dichlorophenyl)acetamide] | 205 to 206 | – | 100 | 43 | – | –
CC(=O)c1ccc(OCc2cn(CC(=O)NCc3ccc(F)cc3)nn2)cc1 [Compound 12, 2-(4-((4-Acetylphenoxy)methyl)-1H-1,2,3-triazol-1-Yl)-N-(4-fluorobenzyl)acetamide] | 165 to 166 | – | 100 | 41 | – | –
CC(=O)c1ccc(OCc2cn(CC(=O)NCc3ccc(C)cc3)nn2)cc1 [Compound 13, 2-(4-((4-Acetylphenoxy)methyl)-1H-1,2,3-triazol-1-Yl)-N-(4-methylbenzyl)acetamide] | 180 to 182 | – | 100 | 84 | – | –
COc1ccc(CNC(=O)Cn2cc(COc3ccc(C(C)=O)cc3)nn2)cc1 [Compound 14, 2-(4-((4-Acetylphenoxy)methyl)-1H-1,2,3-triazol-1-Yl)-N-(4-methoxybenzyl)acetamide] | 125 to 126 | 2 | 100 | – | – | –
Clc1ccc(OCc2cn(Cc3ccc(Br)cc3)nn2)cc1 [Lead structure A] | – | – | – | – | 5.8 (≈ 15.3 µM) | –
CC[C@H](CO)C(=O)c1ccc(OCc2ccccc2)cc1O [Lead structure B] | – | – | – | – | – | 380
COc1ccccc1NC(=O)Cn1cc(COc2ccc3c(c2)CCC3)nn1 [Lead structure C] | – | – | – | – | 6.25 (≈ 16.5 µM) | –
O=C(Cn1cc(-c2ccccc2)nn1)Nc1ccccc1 [Lead structure D] | – | – | – | – | 0.08 (≈ 0.287 µM) | –
CO[C@H]1/C=C/O[C@@]2(C)Oc3c(C)c(O)c4c(O)c(c(/C=N/N5CCN(C)CC5)c(O)c4c3C2=O)NC(=O)/C(C)=C\C=C\[C@H](C)[C@H](O)[C@@H](C)[C@@H](O)[C@@H](C)[C@H](OC(C)=O)[C@@H]1C [Rifampicin, reference compound] | – | – | 58.8 | 8500 | – | –

From article PMC9316523, “Design, Synthesis and Molecular Docking of Novel Acetophenone-1,2,3-Triazoles Containing Compounds as Potent Enoyl-Acyl Carrier Protein Reductase (InhA) Inhibitors” (Pharmaceuticals, 2022)
